Laboratory results reported in paper PMC2784364, “VX-166: a novel potent small molecule caspase inhibitor as a potential therapy for sepsis” (Critical Care, 2009).
Peptide text beside a SMILES is read from it. * marks the point of attachment. Cbz = O=C(OCc1ccccc1)*; CH2F = FC*

Assays:
[1] = test system: IL-2 release from peripheral blood mononuclear cells; test: IL-2 release from anti-CD3/CD28 stimulated PBMC; type: cell-based, human; settings: anti-CD3/CD28 stimulated human PBMC, 24 hours; read-out: IC50, inhibition of IL-2 release
Method: PBMC from healthy donors were isolated as described above. To the wells of a 96-well plate previously coated with 1.5 μg/ml anti-hCD3 (Serotec, Kidlington, UK), 5 × 10^5 cells/ml and 1 μg/ml anti-hCD28 (BD Biosciences, Oxford, UK) were added. Plates were then incubated for 24 hours in the presence or absence of VX-166 or the calcineurin inhibitor FK506 (Merck Biosciences Ltd., Nottingham, UK). IL-2 release into the supernatant was subsequently determined by ELISA (R&D Systems, Abingdon, UK) following the manufacturer's instructions.

[2] = test system: IL-2 release from activated T-cells; parameters: method as in PMID 10601363; settings: 50 μM; cited from earlier work
[3] = test system: Jurkat cells; test: Anti-Fas induced apoptosis in Jurkat cells, Annexin V; type: cell-based, human; settings: Fas-induced apoptosis, readout not specified, data not shown; read-out: IC50 in Fas-assay
Method: Jurkat cells were obtained from LGC Standards (Teddington, UK) and were grown in RPMI 1640, 10% FCS, 2 mM L-glutamine, 100 U/ml penicillin and 0.1 mg/ml streptomycin (all from Sigma Aldrich Ltd., Poole, UK) at 37°C in 5% CO2/95% humidity. Receptor- or stress-mediated apoptosis (2 × 10^5 cells/ml) was induced by addition of either anti-Fas antibody CH-11 (10 ng/ml, Millipore UK Ltd., Watford, UK), TNF-α (20 ng/ml, R&D Systems, Abingdon, UK) with cycloheximide (112 ng/ml, Sigma Aldrich Ltd., Poole, UK) or staurosporine (350 ng/ml, Sigma Aldrich Ltd., Poole, UK). VX-166 was diluted into DMSO (10 mM), further diluted in media and added at a range of concentrations. Cells were then incubated for 18 hours. Apoptotic cells were then labelled with Cy5-conjugated Annexin-V (BD Biosciences, Oxford, UK) and detected using a FMAT™ 8100 Fluorimetric Microassay Technology Reader (Applied Biosystems, Warrington, UK). For the experiments using anti-Fas antibody, apoptosis was additionally measured using a Cell Death Detection ELISA kit (Roche Diagnostics Ltd., Lewes, UK) following the manufacturer's instructions.

Compound | IC50 [1] | block of IL-2 release from activated T-cells [2] | IC50 [3]
C=CC[C@@H]1/C=C(\C)C[C@H](C)C[C@H](OC)[C@H]2O[C@@](O)(C(=O)C(=O)N3CCCC[C@H]3C(=O)O[C@H](/C(C)=C/[C@@H]3CC[C@@H](O)[C@H](OC)C3)[C@H](C)[C@@H](O)CC1=O)[C@H](C)C[C@@H]2OC [FK506, reference compound] | 0.0002 µM | – | –
COC(=O)C[C@H](NC(=O)[C@H](C)NC(=O)[C@@H](NC(=O)OCc1ccccc1)C(C)C)C(=O)CF [zVAD-FMK, reference compound] (Cbz-Val-Ala-Asp(OMe)-CH2F) | – | block IL-2 release | 0.23 µM
IETD-FMK | – | block IL-2 release | –
